# Test results from patent US9597361B2, “Treating a bacterial skin infection with a whole, leech saliva extract” (priority 2012, dated 2017).
# Key:
# [1] = test system: alloxan-induced diabetic rats; assay: Antihyperglycemic activity: fasting blood glucose in alloxan-induced diabetic rats
# Procedure: Male rats of Sprague Dawley strain (SD) (from Mikro Makmur Enterprise, Kuantan, Pahang Darul Makmur, Malaysia) were grouped randomly and kept at an animal post-graduate laboratory in Kulliyyah of Pharmacy, International Islamic University Malaysia (IIUM), maintained with an air conditioning system and exhaust fans. The rats were under a 12 h/12 h dark and light cycle at room temperature (25° C.). They were acclimatized to these conditions for one week prior to the experiment and housed in polypropylene cages lined with pine wood husk changed every two days. The rats were given free access to tap water and a commercial dry pellet diet, Gold Coin. The experimental procedures were conducted according to Principles and Guide to Ethical Use of Laboratory Animals approved by Ministry of Health Malaysia (Sinniah & Hussein, 2000). […]
# After 24 hours of alloxanisation, the fasting blood glucose concentration (FBG) was measured every morning to check the diabetic state of the injected rats. […]
# Fasting blood glucose (FBG) at two-hour intervals was recorded during the experiment period for all the experimental animals. The percentage decrease in fasting blood glucose concentration was calculated from the following equation (Madubunyi, Onoja, & Asuzu, 2010):
# [2] = test system: Pseudomonas aeruginosa ATCC27853; assay: Kirby-Bauer disc diffusion; conditions: ATCC27853, read-out: Zone of inhibition, P. auroginosa
# [3] = test system: Staphylococcus aureus ATCC25923; assay: Kirby-Bauer disc diffusion; conditions: ATCC25923, read-out: Zone of inhibition, S. aureus
# [4] = test system: Escherichia coli ATCC35218; assay: Kirby-Bauer disc diffusion; conditions: ATCC35218, read-out: Zone of inhibition, E. coli
# Salmonella typhi = assay: Kirby-Bauer disc diffusion; format: cell-based; conditions: Salmonella enterica, read-out: Zone of inhibition, Sal. typhi
# [5] = test system: Bacillus cereus ATCC25923; assay: Kirby-Bauer disc diffusion; conditions: ATCC25923, read-out: Zone of inhibition, B. cereus
compound,measurement,setting,value
"insulin: insulin from bovine pancreas (≧27 units/mg), suspension in distilled water",fasting blood glucose (FBG),[1]; after two hours of injection (LSE p<0.05; insulin p<0.001),sharp significant decrease
same,fasting blood glucose (FBG),"[1]; insulin 10 units/kg b.w s.c., after 8 hours of treatment",returned to the diabetic state
"O=C(O)c1cn(C2CC2)c2cc(N3CCNCC3)c(F)cc2c1=O [Cipro, ciprofloxacin]",zone of inhibition at 5 µg/disc,[2],24 mm
same,zone of inhibition at 5 µg/disc,[3],24 mm
same,zone of inhibition at 5 µg/disc,[4],26 mm
same,zone of inhibition at 5 µg/disc,Salmonella typhi,35 mm
same,zone of inhibition at 5 µg/disc,[5],28 mm
